The values that follow come from patent US8314075B2, “Compositions and methods for inhibiting expression of huntingtin gene” (Alynylam Pharmaceuticals, Inc., priority 2005, dated 2012).

Like-named read-outs stand apart in the source and are kept apart here.

One data set deals with endogenous human HD mRNA. Briefly: Dose-response of HD dsRNAs against endogenous human HD mRNA expression in HeLa cells. Format: cell-based. The note with it: for IC50 / IC80: 30 nM to 14 pM; for IC80: read-out: IC-80 mean [nM] ± SD. The gist of the method: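 HeLa cells transfected using oligofectamine with siRNA from 30 nM to 14 pM in 3-fold dilutions. Huntingtin mRNA measured 24 h later by branched-DNA Quantigene assay, normalised to GAPDH, and expressed as percent of cells given an unrelated control siRNA duplex. IC50 by curve fit, mean of independent determinations.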

Another data set relates to Huntingtin mRNA. Briefly: In vivo down-modulation of endogenous HD mRNA by continuous intrastriatal infusion in rats. Set-up: species or system rat. Particulars: 1.3 mg over 7 days (0.5 uL/hr at 1.1 mM); for reduction of normalized Huntingtin mRNA level in cortical tissue: cortex; for reduction of normalized Huntingtin mRNA level in striatal tissue relative to the PBS control group: ipsilateral striatum. On the procedure: In rats, 1.3 mg AL-DP-1997 or AL-DP-1998, or phosphate-buffered saline (PBS, vehicle control) was administered by continuous intrastriatal infusion over 7 days. Male Sprague-Dawley rats, approximately 250-300 g body weight, received stereotaxic implantation of 30-gauge infusion cannulae (Plastics One, Roanok, Va.) such that unilateral injections were targeted to the center of the striatum (anteroposterior+0.7 mm, mediolateral+3.0 mm, relative to bregma; dorsoventral 5 mm, relative to skull surface). Mini-osmotic pumps (model 1007D) were primed overnight according to the manufacturer's specifications, implanted subcutaneously, and connected via catheters, to deliver (4 rats per treatment group) PBS, 1.1 mM AL-DP-1997 or 1.1 mM AL-DP-1998 at 0.5 uL/hr over 7 days. At the end of the 7 day infusion period, animals were sacrificed, brains were removed, and ipsilateral striata encompassing the infusion site were flash frozen. Tissue samples of about 5-30 mg each were homogenized by sonication (BANDELIN electronic GmbH & Co. KG, Berlin, Germany) in Tissue and Cell Lysis solution (Epicentre, Madison, Wis.) containing 84 μg/ml Proteinase K (Epicentre, Madison, Wis.). Lysates were then stored at −80° C. For carrying out the bDNA assay, frozen lysates were thawed at room temperature, and Huntingtin and GAPDH mRNA were quantified using the Quantigene Explore Kit according to the manufacturer's instructions. For each tissue sample, the ratio of Huntingtin/GAPDH (normalized Huntingtin mRNA level) was calculated as an average of four determinations. These ratios were then averaged to obtain a group (treatment) average. The unconjugated dsRNA, AL-DP-1997, reduced the normalized Huntingtin mRNA level by 33%, relative to the PBS control group, whereas the cholesterol-conjugated dsRNA, AL-DP-1998, reduced the normalized Huntingtin mRNA level by 26%, relative to the PBS control group. Both reductions were statistically significant (p<0.05, ANOVA with Tukey post-hoc analysis).
With an identical experimental paradigm, AL-DP-5997 and AL-DP-6000 were also found to be effective in vivo in down-modulating HD mRNA levels after intrastriatal infusion with 1.3 mg over 7 days (0.5 uL/hr at 1.1 mM) in rats. AL-DP-5997 and AL-DP-6000 reduced the normalized Huntingtin mRNA levels in striatal tissue by 34% and 36%, respectively, relative to the PBS control group. In addition, AL-DP-5997 and AL-DP-6000 reduced the normalized Huntingtin mRNA levels in cortical tissue by 22% and 26% respectively.

Where [1] appears, read: mean of three independent determinations, XL-fit, read-out: IC50 (mean).
The mark [2] stands for this setting: two to five independent experiments, read-out: IC-50 mean [nM] ± SD.
[3] abbreviates: two to five independent experiments.

For the substance “AL-DP-6000: dsRNA targeting HD with 2'-O-methyl modifications; sense SEQ ID NO: 798, antisense SEQ ID NO: 799 (sense UCCUGCUUUAGUCGAGAACTT; antisense GUUCUCGACUAAAGCAGGATT; 2'-O-methyl modified, pattern not given here)”, in the data set on endogenous human HD mRNA (setting [1]), the IC50 worked out at 0.24 nM. In the data set on endogenous human HD mRNA (setting [2]), the IC50 worked out at 0.1 ± 0.1 nM. Further, in the data set on endogenous human HD mRNA (setting [3]), the IC80 came to 5 ± 3 nM and the “max. inhib. mean[%] ± SD” value turned out to be 80 ± 2%. In addition, in the data set with Huntingtin mRNA, the “reduction of normalized Huntingtin mRNA level in cortical tissue” value came out at 26% and the “reduction of normalized Huntingtin mRNA level in striatal tissue relative to the PBS control group” value is given as 36%.

Consider “AL-DP-5997: dsRNA targeting HD with 2'-O-methyl modifications; sense SEQ ID NO: 792, antisense SEQ ID NO: 793 (sense GUCACAAAGAACCGUGCAGTT; antisense CUGCACGGUUCUUUGUGACTT; 2'-O-methyl modified, pattern not given here)”, for which the IC50 in the data set on endogenous human HD mRNA (setting [1]) was found to be 0.04 nM. Also, the IC50 with endogenous human HD mRNA (setting [2]) is 0.05 ± 0.02 nM. Also, in the data set with endogenous human HD mRNA (setting [3]), the IC80 amounted to 2 ± 1 nM and the “max. inhib. mean[%] ± SD” value stood at 86 ± 5%. In addition, in the data set on Huntingtin mRNA, the “reduction of normalized Huntingtin mRNA level in cortical tissue” value came to 22% and the “reduction of normalized Huntingtin mRNA level in striatal tissue relative to the PBS control group” value turned out to be 34%.
